Molecular target: T1, Recombinant human liver GK1 (GST-GK) (Homo sapiens, UniProt P35557)
T1 construct: made in house; host or cells: E. coli
T1 sequence (P35557 1-466 isoform P35557-2): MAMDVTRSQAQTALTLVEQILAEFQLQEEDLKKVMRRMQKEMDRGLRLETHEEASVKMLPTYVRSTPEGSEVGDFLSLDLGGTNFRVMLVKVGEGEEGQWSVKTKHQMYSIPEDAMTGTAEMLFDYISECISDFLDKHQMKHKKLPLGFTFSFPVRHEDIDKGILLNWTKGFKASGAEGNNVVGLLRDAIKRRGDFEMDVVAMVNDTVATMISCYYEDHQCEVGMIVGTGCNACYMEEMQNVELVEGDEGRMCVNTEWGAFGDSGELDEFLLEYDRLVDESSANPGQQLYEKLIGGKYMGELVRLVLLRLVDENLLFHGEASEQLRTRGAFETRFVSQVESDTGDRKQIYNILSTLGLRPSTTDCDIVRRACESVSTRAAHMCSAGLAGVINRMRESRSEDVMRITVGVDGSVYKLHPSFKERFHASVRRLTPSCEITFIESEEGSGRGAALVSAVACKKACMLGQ
Assay: In vitro glucokinase activity (G6PDH-coupled NADH assay)
Format: biochemical
Details: 30° C., 5 mM D-glucose, 10% DMSO
Description: Glucokinase In Vitro Assay Protocol: Glucokinase (GK) was assayed by coupling the production of glucose-6-phosphate to the generation of NADH with glucose-6-phosphate dehydrogenase (G6PDH, 0.75-1 kunits/mg; Boehringer Mannheim, Indianapolis, Ind.) from Leuconostoc mesenteroides as the coupling enzyme (Scheme 2).
Recombinant human liver GK1 was expressed in E. coli as a glutathione S-transferase fusion protein (GST-GK) [Liang et al, 1995] and was purified by chromatography over a glutathione-Sepharose 4B affinity column using the procedure provided by the manufacturer (Amersham Pharmacia Biotech, Piscataway, N.J.).
The assay was conducted at 30° C. in a flat bottom 96-well tissue culture plate from Costar (Cambridge, Mass.) with a final incubation volume of 120 μL. The incubation reaction contained the following: 25 mM Hepes buffer (pH 7.1), 25 mM KCl, 5 mM D-glucose, 1 mM ATP, 1.8 mM NAD, 2 mM MgCl2, 1 μM sorbitol-6-phosphate, 1 mM dithiothreitol, test drug or 10% dimethylsulfoxide, ˜7 units/ml G6PDH, and GK (see below). All organic reagents were >98% pure and were from Boehringer Mannheim with the exceptions of D-glucose and Hepes which were from Sigma Chemical Co, St Louis, Mo. Test compounds were dissolved in dimethylsulfoxide and were added to the incubation reaction minus GST-GK in a volume of 12 μL to yield a final dimethylsulfoxide concentration of 10%. This mix was pre-incubated in the temperature controlled chamber of a SPECTRAmax 250 microplate spectrophotometer (Molecular Devices Corporation, Sunnyvale, Calif.) for 10 min to allow temperature equilibrium and then the reaction was started by the addition of 20 μL GST-GK.
After addition of enzyme, the increase in optical density (OD) at 340 nm was monitored spectrophotometrically to determine the rate of change (OD340 per min). The GK activity (OD340/min) in control wells (10% DMSO minus GK activators) was compared with the activity in wells containing test GK activators, and the concentration of activator that produced a 50% increase in the activity of GK, i.e., the SC1.5, was calculated. The table below provides the in vitro glucokinase activity for the compounds in the Examples: […]

SC1.5 (concentration of activator that produced a 50% increase in the activity of GK) [µM]	SMILES
0.37	CC(C)C[C@@H](C(=O)Nc1ccn(C[C@@H](O)CO)n1)N1CC(Oc2cccc(N(C)C)c2F)=CC1=O.Cl [Example 140, (S)-2-[4-(3-Dimethylamino-2-fluoro-phenoxy)-2-oxo-2,5-dihydro-pyrrol-1-yl]-4-methyl-pentanoic acid [1-((R)-2,3-dihydroxy-propyl)-1H-pyrazol-3-yl]-amide hydrochloride]
0.161	CC(C)(O)Cn1ccc(NC(=O)[C@H](CC2CCCCO2)N2CC(Oc3cccc(Cl)c3Cl)=CC2=O)n1 (stereo partly drawn) [Example 92, (S)-2-[4-(2,3-Dichloro-phenoxy)-2-oxo-2,5-dihydro-pyrrol-1-yl]-N-[1-(2-hydroxy-2-methyl-propyl)-1H-pyrazol-3-yl]-3-(tetrahydro-pyran-2-yl)-propionamide]
0.013	CC(C)(O)Cn1ccc(NC(=O)[C@H](CC2CCCCC2)N2CC(Oc3cc(Cl)ccc3Cl)=CC2=O)n1 [Example 201, (S)-3-cyclohexyl-2-[4-(2,5-dichloro-phenoxy)-2-oxo-2,5-dihydro-pyrrol-1-yl]-N-[1-(2-hydroxy-2-methyl-propyl)-1H-pyrazol-3-yl]-propionamide]
1.8	O=C(Nc1ccn(C[C@@H](O)CO)n1)C(CCC(F)(F)F)N1CC(Oc2ccccc2Cl)=CC1=O (stereo partly drawn) [Example 220, 2-[4-(2-Chloro-phenoxy)-2-oxo-2,5-dihydro-pyrrol-1-yl]-5,5,5-trifluoro-pentanoic acid [1-((R)-2,3-dihydroxy-propyl)-1H-pyrazol-3-yl]-amide]
0.048	O=C(O)c1ccc(NC(=O)[C@H](CC2CCCCC2)N2CC(Oc3c(F)cccc3Cl)=CC2=O)nc1 [Example 70, 6-{(S)-2-[4-(2-Chloro-6-fluoro-phenoxy)-2-oxo-2,5-dihydro-pyrrol-1-yl]-3-cyclohexyl-propionylamino}-nicotinic acid]
0.19	COC(=O)c1ccc(NC(=O)C(CC2CCOCC2)N2CC(Oc3c(F)cccc3F)=CC2=O)nc1 (stereo not drawn) [Example 40, 6-[2-[4-(2,6-difluoro-phenoxy)-2-oxo-2,5-dihydro-pyrrol-1-yl]-3-(tetrahydro-pyran-4-yl)-propionylamino]-nicotinic acid methyl ester]
0.028	CC(C)(O)Cn1ccc(NC(=O)[C@H](CC2CCCCC2)N2CC(Oc3c(F)cccc3F)=CC2=O)n1 [Example 36, (S)-3-Cyclohexyl-2-[4-(2,6-difluoro-phenoxy)-2-oxo-2,5-dihydro-pyrrol-1-yl]-N-[1-(2-hydroxy-2-methyl-propyl)-1H-pyrazol-3-yl]-propionamide]
0.412	CC(C)C[C@@H](C(=O)Nc1ccn(C[C@@H]2C[C@H](CC(=O)OC(C)(C)C)OC(C)(C)O2)n1)N1CC(Oc2ccccc2Cl)=CC1=O [Example 192]
0.33	CC(C)C[C@@H](C(=O)Nc1ccn(C[C@@H](O)CO)n1)N1CC(Oc2cc(F)ccc2F)=CC1=O [Example 101, (S)-2-[4-(2,5-Difluoro-phenoxy)-2-oxo-2,5-dihydro-pyrrol-1-yl]-4-methyl-pentanoic acid [1-((R)-2,3-dihydroxy-propyl)-1H-pyrazol-3-yl]-amide]
0.072	COc1ccc(F)c(OC2=CC(=O)N([C@@H](CC(C)C)C(=O)Nc3ccn(C[C@@H](O)CO)n3)C2)c1F [Example 119, (S)-2-[4-(2,6-Difluoro-3-methoxy-phenoxy)-2-oxo-2,5-dihydro-pyrrol-1-yl]-4-methyl-pentanoic acid [1-((R)-2,3-dihydroxy-propyl)-1H-pyrazol-3-yl]-amide]
0.239	CCOc1cccc(OC2=CC(=O)N([C@@H](CC(C)C)C(=O)Nc3ccn(CC(C)(C)O)n3)C2)c1 [Example 163, (S)-2-[4-(3-Ethoxy-phenoxy)-2-oxo-2,5-dihydro-pyrrol-1-yl]-4-methyl-pentanoic acid [1-(2-hydroxy-2-methyl-propyl)-1H-pyrazol-3-yl]-amide]
0.097	COC(=O)c1ccc(NC(=O)[C@H](CC(C)C)N2CC(Oc3c(F)cccc3F)=CC2=O)nc1 [Example 46, 6-{(S)-2-[4-(2,6-difluoro-phenoxy)-2-oxo-2,5-dihydro-pyrrol-1-yl]-4-methyl-pentanoylamino}-nicotinic acid methyl ester]
1.388	CC(C)OCCn1ccc(NC(=O)[C@H](CC2CCCC2)N2CC(OC3CCCC3)=CC2=O)n1 [Example 20, (S)-3-Cyclopentyl-N-[1-(2-isopropoxy-ethyl)-1H-pyrazol-3-yl]-2-(4-cyclopentyloxy-2-oxo-2,5-dihydro-pyrrol-1-yl)-propionamide]
0.251	C=Cc1cccc(OC2=CC(=O)N([C@@H](CC(C)C)C(=O)Nc3ccn(C[C@@H]4COC(C)(C)O4)n3)C2)c1F [Example 144, (S)-2-[4-(2-Fluoro-3-vinyl-phenoxy)-2-oxo-2,5-dihydro-pyrrol-1-yl]-4-methyl-pentanoic acid [1-((R)-2,2-dimethyl-[1,3]dioxolan-4-yl-methyl)-1H-pyrazol-3-yl]-amide]
2.591	CCOc1ccccc1OC1=CC(=O)N([C@@H](CC(C)C)C(=O)Nc2ccn(C)n2)C1.Cl [Example 82, (S)-2-[4-(2-Ethoxy-phenoxy)-2-oxo-2,5-dihydro-pyrrol-1-yl]-4-methyl-pentanoic acid (1-methyl-1H-pyrazol-3-yl)-amide Hydrochloride]
0.217	COc1ccccc1OC1=CC(=O)N(C(CC2CCOCC2)C(=O)Nc2ccn(CC(C)(C)O)n2)C1 (stereo not drawn) [Example 34, N-[1-(2-hydroxy-2-methyl-propyl)-1H-pyrazol-3-yl]-2-[4-(2-methoxy-phenoxy)-2-oxo-2,5-dihydro-pyrrol-1-yl]-3-(tetrahydropyran-4-yl)-propionamide]
0.172	C=Cc1cccc(OC2=CC(=O)N([C@@H](CC(C)C)C(=O)Nc3cnccn3)C2)c1F [Example 154, (S)-2-[4-(2-Fluoro-3-vinyl-phenoxy)-2-oxo-2,5-dihydro-pyrrol-1-yl]-4-methyl-pentanoic acid pyrazin-2-ylamide]
0.4	CC(C)C[C@@H](C(=O)Nc1ccn(C)n1)N1CC(Oc2cccc(Cl)c2Cl)=CC1=O.Cl [Example 78, (S)-2-[4-(2,3-Dichloro-phenoxy)-2-oxo-2,5-dihydro-pyrrol-1-yl]-4-methyl-pentanoic acid (1-methyl-1H-pyrazol-3-yl)-amide Hydrochloride]
0.163	CC(C)C[C@@H](C(=O)Nc1ccn(C[C@@H](O)CO)n1)N1CC(Oc2cccc(Br)c2F)=CC1=O [Example 129, (S)-2-[4-(3-Bromo-2-fluoro-phenoxy)-2-oxo-2,5-dihydro-pyrrol-1-yl]-4-methyl-pentanoic acid [1-((R)-2,3-dihydroxy-propyl)-1H-pyrazol-3-yl]-amide]
3.485	COc1cccc(OC2=CC(=O)N(C(CC(C)(C)F)C(=O)Nc3ccn(CC(C)(C)O)n3)C2)c1Cl (stereo not drawn) [Example 171, 2-[4-(2-Chloro-3-methoxy-phenoxy)-2-oxo-2,5-dihydro-pyrrol-1-yl]-4-fluoro-4-methyl-pentanoic acid [1-(2-hydroxy-2-methyl-propyl)-1H-pyrazol-3-yl]-amide]
0.527	CC(C)C[C@@H](C(=O)Nc1ccn(C[C@@H]2COC(C)(C)O2)n1)N1CC(Oc2ccccc2Cl)=CC1=O [Example 65]

From patent US7741327B2 (Hoffmann-La Roche Inc., priority 2008, dated 2010)
